# “Also recorded” adds a separate entry of the source. Like-named read-outs stand apart in the source and are kept apart here.
# What was measured:
# [1] = system: Phytophthora sojae; assay: Pathogen suppressive activity plate assay (zone of inhibition); type: cell-based
# [2] = system: Rhizoctonia solani; assay: as above; type: cell-based; details: for mean inhibitory zone size: Table 4
# [3] = system: Pythium ultimum var. sporangiferum; assay: as above; type: cell-based
# [4] = system: Fusarium virguliforme; assay: as above; type: cell-based; details: Table 4
# [5] = system: Phytophthora medicaginis; assay: Phytophthora medicaginis control on alfalfa, greenhouse; type: in vivo; details: field soil naturally infested, 28 days, inoculated vs non-inoculated
# Excerpt: FIG. 7A-B. Inoculant included in this figure: GS1. FIG. 7A depicts the severity of disease on […]. The present figure was constructed utilizing methods from Example 9(F)(iii). […] Briefly, soils were inoculated with a liquid spore suspension of a single Streptomyces isolate at planting. Alfalfa seeds were planted into field soil that was naturally-infested with the pathogen Phytophthora medicaginis. After 28 days, plants were harvested for disease and biomass assessments.
# Inoculum was prepared as described above, and used to inoculate seeds planted in field soil placed in sterile tins. Inoculation occurred immediately after planting. […] GS1 was thus shown to promote plant growth.
# [6] = system: Sclerotinia sclerotiorum; assay: Pathogen suppressive activity plate assay (zone of inhibition); type: cell-based; details: for mean inhibitory zone size: Table 4
# [7] = system: Phytophthora sojae; assay: Phytophthora sojae control on soybean, growth chamber; type: in vivo; details: growth chamber trials
# [8] = system: Phytophthora medicaginis; assay: Pathogen suppressive activity plate assay (zone of inhibition); type: cell-based; details: for zone of inhibition: Table 1; for mean inhibitory zone size: Table 4
# [9] = system: corn; assay: Plant growth promotion, greenhouse (FIG. 27); type: in vivo
# Protocol: (§1) Wheat, alfalfa, corn, and soybean plants were evaluated for the growth response to microbial inoculants in growth chamber and greenhouse conditions. For each crop, containers (6.5 cm diameter x 25 cm long) were filled with steamed (sterile) greenhouse soil mix (500 ml) and planted with two (corn, soy, wheat) or three (alfalfa) seeds. Crop varieties were: SOY: AG 0832; CORN: Viking, WHEAT: Prosper, ALFALFA: Saranac. Seeds were inoculated with microbial isolates from the enriched microbial library immediately after planting (2 ml of water agar containing the inoculant per seed, 1×10^11 cells inoculant/ml). Control plants were allowed to grow without the microbial inoculants Plants were grown in the greenhouse and harvested at 3 weeks (corn), 4 weeks (wheat), 4.5 weeks (soybean) and 5 weeks (alfalfa). At harvest, the roots were carefully washed, and above- and belowground fresh weights were recorded (g). Plants were subsequently placed in paper bags and maintained in the 95° F. drying oven for 3 days, after which dry weights were also recorded. Plant weights were compared between inoculated and non-inoculated treatments.
# (§2) For each crop (wheat, alfalfa, soybean, corn), a container (6.5 cm dia×25 cm long; approximately 500 cc of soil) was filled with steamed (sterile) greenhouse soil mix and planted with two of each seed (corn, soy, wheat) or three seeds (alfalfa) at a 0.5 inch depth. Crop varieties were: SOY: AG 0832; CORN: Viking, WHEAT: Prosper, ALFALFA: Saranac. Wheat, soybean and corn seeds (but not alfalfa) were surface sterilized before planting. Seeds were not treated with any fungicides or other chemicals. All crops were thinned to one seed per container following emergence. Ten replicate containers were planted for each inoculant and for the non-inoculated control.
# (§3) Streptomyces cultures GS1 and PS1 were grown for 7-10 days on plates containing oatmeal agar (OA), and collected in 20% glycerol stocks. Stocks were serially diluted and plated on water agar (WA) for quantification. Stocks were then diluted to approximately 1×10^11 colony-forming units per ml.
# (§4) For each inoculant, 2 ml of stock was distributed over the seeds at planting. Seeds and containers were watered when needed. Plants were incubated in the greenhouse and harvested at 3 weeks (corn), 4 weeks (wheat), 4.5 weeks (soybean) and 5 weeks (alfalfa). No additional nitrogen was added. At harvest for each crop, the roots were carefully washed, and above- and belowground fresh weights were recorded (g). Plants were subsequently placed in paper bags and maintained in the 95° F. drying oven for 3 days, after which dry weights were also recorded. Plant weights were compared between inoculated and non-inoculated treatments.
# [10] = system: Wheat, alfalfa, corn, and soybean plants; assay: Plant growth promotion, greenhouse (FIG. 27); type: in vivo; details: plant biomass
# Protocol: as §1, §2, §3, §4
# [11] = system: alfalfa; assay: Plant growth promotion, greenhouse (FIG. 27); type: in vivo
# Protocol: as §1, §2, §3, §4
# [12] = system: soybean; assay: Plant growth promotion, greenhouse (FIG. 27); type: in vivo
# Protocol: as §1, §2, §3, §4
# [13] = system: wheat; assay: Plant growth promotion, greenhouse (FIG. 27); type: in vivo
# Protocol: as §1, §2, §3, §4
# [14] = system: clinical antimicrobials (antibiotic discs); assay: Antibiotic disc resistance/susceptibility assay of microbial isolates; type: cell-based
# [15] = system: Fusarium graminearum; type: cell-based; details: for zone of inhibition: Table 1; for mean inhibitory zone size: Table 4
# [16] = system: potato scab; assay: Potato field trials: percent scab control; type: in vivo; parameters: concentration or dose not given beside the values
# [17] = system: Fusarium oxysporum; assay: Pathogen suppressive activity plate assay (zone of inhibition); type: cell-based; details: for zone of inhibition: Table 1; for mean inhibitory zone size: Table 4
# [18] = system: F. culmorum; assay: as above; type: cell-based; details: Table 1; pathogen isolate P61
substance,measurement,setting,value
Streptomyces lydicus [GS1],inhibition of pathogen (in words),[1]; P52 isolate of Phytophthora sojae,does not
same,zone of inhibition,"[1]; Table 1, pathogen isolate P52",0 mm
same,mean inhibitory zone size,"[1]; Table 4, pathogen target isolate P52",0 mm
same,inhibition of pathogen (in words),[2]; P6 isolate of Rhizoctonia solani,inhibits
same,zone of inhibition,"[2]; Table 1, pathogen isolate P6",9.15 mm
same,mean inhibitory zone size,[2]; pathogen target isolate P5,8.95 mm
same,mean inhibitory zone size,[2]; pathogen target isolate P6,9.15 mm
same,mean inhibitory zone size,[2]; pathogen target isolate P12,9.78 mm
same,zone of inhibition,"[3]; Table 1, pathogen isolate P58",9.95 mm
same,mean inhibitory zone size,"[3]; Table 4, pathogen target isolate P58",9.95 mm
same,mean inhibitory zone size,[4]; pathogen target isolate P20,0 mm
same,mean inhibitory zone size,[4]; pathogen target isolate P21,1.3 mm
same,mean inhibitory zone size,[4]; pathogen target isolate P22,0 mm
same,mean inhibitory zone size,[4]; pathogen target isolate P23,0 mm
same,disease,[5],significantly reduced; also recorded: reduced disease
same,plant biomass,[5],significantly increased; also recorded: significant increases
same,zone of inhibition,"[6]; Table 1, pathogen isolate P19",8.63 mm
same,mean inhibitory zone size,[6]; pathogen target isolate P17,16.8 mm
same,mean inhibitory zone size,[6]; pathogen target isolate P18,12.8 mm
same,mean inhibitory zone size,[6]; pathogen target isolate P19,8.63 mm
same,reduction of disease severity,[7]; soil infested with P. sojae,93%
same,percent healthy plants,[7]; FIG. 7A,increased
same,zone of inhibition,[8]; pathogen isolate P43,4.53 mm
same,zone of inhibition,[8]; pathogen isolate P44,10.45 mm
same,mean inhibitory zone size,[8]; pathogen target isolate P43,4.53 mm
same,mean inhibitory zone size,[8]; pathogen target isolate P44,10.45 mm
same,fresh and dry weights,[9],not
same,promotion of growth of inoculated vs non-inoculated plants,[10],statistically significant effect
same,fresh and dry weights,[11],significant enhancements
same,growth promotion,[11]; FIG. 27,promote the growth
same,dry weight,[12],significant increases
same,fresh and dry weights,[13],not
same,Antibiotic resistance characteristics,[14]; Amoxicillin Clavulanate,R (R-resistant (0 inhibition zone))
same,Antibiotic resistance characteristics,[14]; Chloramphenicol,R (R-resistant (0 inhibition zone))
same,Antibiotic resistance characteristics,[14]; Erythromycin,S (S-susceptible (>10 mm))
same,Antibiotic resistance characteristics,[14]; Kanamycin,S (S-susceptible (>10 mm))
same,Antibiotic resistance characteristics,[14]; Novobiocin 5,MS (MS-moderately susceptible (6-10 mm))
same,Antibiotic resistance characteristics,[14]; Novobiocin 30,MS (MS-moderately susceptible (6-10 mm))
same,Antibiotic resistance characteristics,[14]; Penicillin,R (R-resistant (0 inhibition zone))
same,Antibiotic resistance characteristics,[14]; Rifampin,R (R-resistant (0 inhibition zone))
same,Antibiotic resistance characteristics,[14]; Streptomycin,S (S-susceptible (>10 mm))
same,Antibiotic resistance characteristics,[14]; Tetracycline,R (R-resistant (0 inhibition zone))
same,Antibiotic resistance characteristics,[14]; Vancomycin 5,MS (MS-moderately susceptible (6-10 mm))
same,Antibiotic resistance characteristics,[14]; Vancomycin 30,MS (MS-moderately susceptible (6-10 mm))
same,zone of inhibition,[15]; pathogen isolate P31,8.63 mm
same,zone of inhibition,[15]; pathogen isolate P34,16.28 mm
same,mean inhibitory zone size,[15]; pathogen target isolate P30,14.58 mm
same,mean inhibitory zone size,[15]; pathogen target isolate P31,8.63 mm
same,mean inhibitory zone size,[15]; pathogen target isolate P32,11.5 mm
same,mean inhibitory zone size,[15]; pathogen target isolate P33,13.13 mm
same,mean inhibitory zone size,[15]; pathogen target isolate P34,16.28 mm
same,mean inhibitory zone size,[15]; pathogen target isolate P35,11.03 mm
same,Percent Control (reduction in scab severity vs non-inoculated plots),"[16]; experiment BPP, disease on non-inoculated tubers 22.2",33%
same,Percent Control (reduction in scab severity vs non-inoculated plots),"[16]; experiment BSCR, disease on non-inoculated tubers 16.2",35%
same,Percent Control (reduction in scab severity vs non-inoculated plots),"[16]; experiment BSP, disease on non-inoculated tubers 24.3",42%
same,Percent Control (reduction in scab severity vs non-inoculated plots),"[16]; experiment BWP, disease on non-inoculated tubers 26.7",38%
same,Percent Control (reduction in scab severity vs non-inoculated plots),"[16]; experiment RPP, disease on non-inoculated tubers 15.6",37%
same,Percent Control (reduction in scab severity vs non-inoculated plots),"[16]; experiment RSP, disease on non-inoculated tubers 8.8",39%
same,zone of inhibition,[17]; pathogen isolate P27,0 mm
same,zone of inhibition,[17]; pathogen isolate P29,0 mm
same,mean inhibitory zone size,[17]; pathogen target isolate P25,2.15 mm
same,mean inhibitory zone size,[17]; pathogen target isolate P26,9.38 mm
same,mean inhibitory zone size,[17]; pathogen target isolate P28,0 mm
same,mean inhibitory zone size,[17]; pathogen target isolate P29,0 mm
same,zone of inhibition,[18],4.68 mm

# From patent publication US20210251237A1, “PLATFORM FOR DEVELOPING SOIL-BORNE PLANT PATHOGEN INHIBITING MICROBIAL CONSORTIA” (priority 2018, published 2021)
